Experimental findings from patent US20240398783A1, “Compounds and Pharmaceutical Compositions Comprising Inhibitors of Amyloid Peptide Interactions with Glycosaminoglycans, Methods of Treatment and Use Thereof” (Gismo Therapeutics, Inc., priority 2021, published 2024) are described below.

Design in all cases: species or system porcine
Test [1] concerns the target Amyloid-beta(1-40) binding to heparin (HS-GAG) (Homo sapiens, UniProt P05067). Put plainly: Inhibition of Amyloid-beta(1-40) binding to immobilized heparin-BSA (ELISA). The following applies: for IC50: co-incubation on heparin-BSA plates; for inhibition at 30 µM: read-out: Abeta40/Heparin Activity (% inhibition class). The method, then: (§1) Porcine intestinal mucosa heparin conjugated to Bovine Serum Albumin (Heparin-BSA) was prepared as described (Najjam, S. et al. 1997, Cytokine 12, 1013-1022). Heparin is a sulfated HS-GAG and is commonly used as a HS-GAG in biochemical and binding assays (Lindahl, U. and Kjellen, L. (2013) ibid). Heparin-BSA at 0.01 mg/ml in Phosphate Buffered Saline (PBS; pH 7.4) was added to a 96 well polystyrene ELISA plate (NUNC Cat. No. 449824; 100 μl per well) and incubated Over Night (ON) at 4 degrees Celsius. For negative controls, ELISA plates were coated with BSA instead of Heparin-BSA, using the same procedure. Following the incubation, the plate was washed consecutively, by immersion, with de-ionized water and PBS (pH 7.4). The ELISA plate was then blocked with nonfat milk (2%, 200 μl per well) for 2 hours at Room Temperature (RT) with gentle shaking. Following blocking, the plate was washed with de-ionized water then PBS (pH 7.4). GBAPs were dissolved and diluted in PBS (pH 6.5, supplemented with 0.1% BSA) at desired concentrations, added to the ELISA plates containing immobilized Heparin-BSA (100 μl per well) and incubated for 2 hours at RT with gentle shaking. Following incubation, the plate was washed with de-ionized water and three times with PBS (pH 6.5) plus Tween. Bound GBAP was detected by a monoclonal antibody specific for that GBAP, followed by incubation with secondary antibody conjugated to horseradish peroxidase (HRP). Antibody was diluted in PBS (pH 6.5 supplemented with 1% BSA). Following each incubation with antibody, the plate was washed with de-ionized water and three times with PBS (pH 6.5) wash buffer containing 0.1% Tween. The peroxidase substrate chromogen, TMB (Dako Cat. No. S1599) was added (100 μl per well) to the ELISA plate and incubated at room temperature. After 5 minutes ELISA Stop Solution (hydrochloric acid 1N, sulfuric acid 3N) was added (100 μl per well) to stop the peroxidase catalyzed colorimetric reaction. The Optical Density of the samples was measured at 450 nm using an ELISA plate reader (BioTek Synergy H1). Following color development, the % inhibition compared to control (BSA-coated plates) was determined. IC-50s were calculated using GraphPad Prism software.
(§2) The assay was performed as described in Example 43, with the following modifications. Following to coating the plates with Heparin-BSA, plates were washed as described. The compounds were dissolved in DMSO at 10 mM final concentration and further diluted prior to assay. DMSO concentration in the screening well was up to 2%. Individual compounds were co-incubated with Beta-amyloid peptides on plates containing immobilized heparin. Beta-amyloid (1-42) was purchased from rPeptide (Cat. No. A1163) and used to prepare oligomers according to Stine et al., 2003 (J Biol Chem. 278(13):11612-22) as follows. 1,1,1,3,3,3-Hexafluoro-2-propanol- (HFIP; Sigma Cat. No. 105228)-treated Beta amyloid (1-42) was dissolved in dry DMSO (Sigma Cat. No. D2650) to 5 mM concentration. Dissolved Beta amyloid (1-42) was then diluted to 100 μM in ice-cold cell culture medium (phenol red-free Ham's F-12; Caisson Labs, Cat. No. HFL05), followed immediately by vortexing for 30 seconds, and incubating at 4 degrees Celsius for 24 h. Resulting Beta amyloid (1-42) oligomers were centrifuged at 12,000 rpm for 10 min at 4 degree Celsius to remove aggregates. Oligomers were then quickly frozen and kept in aliquots at −80 degrees Celsius. Beta-amyloid (1-40) from rPeptide (Cat No. A1153) was dissolved in DMSO, quickly frozen and kept in aliquots at −80 degrees Celsius. Beta-amyloid (1-42) oligomers or Beta-amyloid (1-40) diluted in PBS (pH 6.5, supplemented with BSA, 0.1%) were added to the ELISA plate (100 μl per well) and incubated for 2 hours at RT with gentle shaking. Following the incubation, the plate was washed with de-ionized water and three times with PBS (pH 6.5) plus Tween. […]
In general terms: An ELISA detects its analyte on a solid surface through an enzyme-linked reagent.

For test [2], the target named is T1, Amyloid-beta(1-42) oligomer binding to heparin (HS-GAG) (Homo sapiens, UniProt P05067).
T1 construct: Beta-amyloid (1-42) was purchased from rPeptide (Cat. No. A1163); purchased rPeptide A1163
T1 sequence (P05067 672-713): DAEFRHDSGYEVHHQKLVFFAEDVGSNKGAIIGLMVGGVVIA
The test is described as follows: Inhibition of Amyloid-beta(1-42) oligomer binding to immobilized heparin-BSA (ELISA). The settings on record: for IC50: co-incubation on heparin-BSA plates, read-out: Abeta42/Heparin Activity (IC-50); for inhibition at 30 µM: read-out: Abeta42/Heparin Activity (% inhibition class). The method, then:
as §1, §2

The target of test [3] is TDP-43 binding to heparin (HS-GAG) (Homo sapiens, UniProt Q13148). The test is described as follows: Inhibition of TDP-43 binding to immobilized heparin-BSA (ELISA). The settings on record: for IC50: TDP-43, heparin-BSA; for inhibition at 30 µM: read-out: TDP43/Heparin Activity (% inhibition class). Here is the method: as §1
Chain of TDP-43 binding to heparin (HS-GAG) (Q13148 whole entry): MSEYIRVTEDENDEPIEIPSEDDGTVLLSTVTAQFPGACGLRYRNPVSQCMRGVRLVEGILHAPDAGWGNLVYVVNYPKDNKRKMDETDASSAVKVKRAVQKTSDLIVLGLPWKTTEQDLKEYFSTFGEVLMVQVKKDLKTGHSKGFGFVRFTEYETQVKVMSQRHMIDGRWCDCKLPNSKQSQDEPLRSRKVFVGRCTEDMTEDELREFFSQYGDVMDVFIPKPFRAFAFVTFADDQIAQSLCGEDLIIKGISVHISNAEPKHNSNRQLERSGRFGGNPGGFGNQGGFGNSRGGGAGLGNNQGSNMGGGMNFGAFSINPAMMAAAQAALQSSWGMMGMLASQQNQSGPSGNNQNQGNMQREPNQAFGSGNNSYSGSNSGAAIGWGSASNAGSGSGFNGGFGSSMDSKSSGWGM
The assay was performed as described in Example 43, with the following modifications.
Following to coating the plates with Heparin-BSA, plates were washed as described. The compounds were dissolved in DMSO at 10 mM final concentration and further diluted prior to assay. DMSO concentration in the screening well was up to 2%. Individual compounds were co-incubated with TDP-43 on plates containing immobilized heparin. TDP43 from R&D System (Cat. No. AP-190) was quickly frozen and kept in aliquots at −80 degrees Celsius. TDP-43 dissolved in PBS (pH 6.5, supplemented with BSA, 0.1%) was added to the ELISA plate (100 μl per well) and incubated for 2 hours at RT with gentle shaking. Following the incubation, the plate was washed with de-ionized water and three times with PBS (pH 6.5) plus Tween. Bound TDP-43 was detected by Anti-TDP43 Monoclonal Antibody (R&D System Cat. No. MAB7778), followed by secondary anti-IgG antibody conjugated to HRP (R&D System, Cat. No. HAF007). Following to color development with TMB, as described in Example 43, the Optical Density of the samples was measured at 450 nm using an ELISA plate reader. Following color development, the % inhibition compared to control (no compound, DMSO control) for every compound was determined.
As described in Example 43, Heparin in the form of Heparin-BSA conjugate is used as a source of HS-GAG. For each compound IC-50 value in TDP-43—heparin-BSA binding assay is shown in μM (micromolar). In some cases IC-50 was not measured and % inhibition at 30 μM compound concentration is shown instead. […] All assays were done on 96-well plates in duplicates and experiments were repeated at least twice. […]

The mark [4] stands for this setting: Abeta40/Heparin Activity (IC-50), Abeta(1-40).
[5] abbreviates: 30 μM compound, Abeta(1-40), heparin-BSA.
[6] abbreviates: 30 μM compound, Abeta(1-42) oligomers, heparin-BSA.

SMILES strings stand for the structures. Like-named read-outs stand apart in the source and are kept apart here. Where only a bound is given, the exact number is not on record here.

Chain of Amyloid-beta(1-40) binding to heparin (HS-GAG) (P05067 672-711): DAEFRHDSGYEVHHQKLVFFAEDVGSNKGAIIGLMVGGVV

On to `Cc1cc(-n2ccnc2)ccc1/C=N/Nc1ccnc2cc(Cl)ccc12` [Compound 1, (E)-4-((E)-(4-(1H-imidazol-1-yl)-2-methylbenzylidene)hydrazono)-7-chloro-1,4-dihydroquinoline], for which the IC50 was 3.67 µM in test [1] (Abeta(1-40), read-out: Abeta40/Heparin Activity (IC-50)); 2.3 µM in test [2] (Abeta(1-42) oligomers); 2.92 µM in test [3] (read-out: TDP43/Heparin Activity (IC-50)).

With `Cc1ncn(-c2ccc(/C=N/Nc3ccnc4cc(Cl)ccc34)cc2)c1C` [Compound 2, (E)-7-chloro-4-((E)-(4-(4,5-dimethyl-1H-imidazol-1-yl)benzylidene)hydrazono)-1,4-dihydroquinoline], the IC50 in test [1] (setting [4]) was determined as 22.9 µM; in test [2] (Abeta(1-42) oligomers) it was 30.7 µM; in test [3] (TDP43/Heparin Activity (IC-50)), 61.7 µM.

For the compound `Clc1ccc2c(N/N=C/c3ccc(-n4cccn4)cc3)ccnc2c1` [Compound 3, (E)-4-((E)-(4-(1H-pyrazol-1-yl)benzylidene)hydrazono)-7-chloro-1,4-dihydroquinoline], the IC50 in test [1] (setting [4]) came out at 2.75 µM; in test [2] (Abeta(1-42) oligomers), 2.36 µM; in test [3] (TDP43/Heparin Activity (IC-50)) it was 8.1 µM.

Turning to `C[N+](C)(C)Cc1ccc(/C=N\Nc2ccnc3ccc(Cl)cc23)cc1` [Compound 4, (Z)-1-(4-((2-(6-chloroquinolin-4-yl)hydrazineylidene)methyl)phenyl)—N,N,N-trimethylmethanaminium iodide], the IC50 in test [1] (setting [4]) worked out at 51.3 µM; in test [2] (Abeta(1-42) oligomers), 42.7 µM. In addition, in test [3], the inhibition at 30 µM is below 30%.

Take `Fc1ccc2c(N/N=C/c3ccc(-n4ccnc4)cc3)ccnc2c1` [Compound 5, (E)-4-(2-(4-(1H-imidazol-1-yl)benzylidene)hydrazinyl)-7-fluoroquinoline]: the IC50 in test [1] (setting [4]) stood at 3.33 µM; in test [3] (TDP43/Heparin Activity (IC-50)), 71.4 µM. Also, the inhibition at 30 µM in test [2] was below 30%.

Take `Fc1ccc2c(N/N=C/c3ccc(CN4CCOCC4)cc3)ccnc2c1` [Compound 6, (E)-4-(4-((2-(7-fluoroquinolin-4-yl)hydrazono)methyl)benzyl)morpholine]: the inhibition at 30 µM in test [1] (setting [5]) is above 30%; in test [2] (setting [6]) it was above 30%; in test [3] it was below 30%.

Take `CN1CCN(Cc2ccc(/C=N/Nc3ccnc4cc(Cl)ccc34)cc2)CC1` [Compound 7, (E)-7-chloro-4-(2-(4-((4-methylpiperazin-1-yl)methyl)benzylidene)hydrazinyl)quinolone]: the IC50 in test [1] (setting [4]) was 25.2 µM. Further, the inhibition at 30 µM in test [2] (setting [6]) and in test [3] was below 30% each time.

In the case of `C(=N\Nc1ccc2c3c(cccc13)CC2)/c1ccc(-n2ccnc2)cc1` [Compound 8, (E)-1-(4-((2-(1,2-dihydroacenaphthylen-5-yl)hydrazineylidene)methyl)phenyl)-1H-imidazole], the inhibition at 30 µM in test [1] and in test [2] was below 30% in each case. Further, the IC50 in test [3] (TDP43/Heparin Activity (IC-50)) is 10.8 µM.

`C[n+]1ccc(/C=N\Nc2ccnc3ccccc23)cc1` [Compound 9, (Z)-1-methyl-4-((2-(quinolin-4-yl)hydrazono)methyl)pyridin-1-ium iodide]: the inhibition at 30 µM in test [1] (setting [5]), in test [2] (setting [6]) and in test [3] was below 30% throughout.

As to `O=S1(=O)CCN(Cc2ccc(/C=N/Nc3ccnc4cc(F)ccc34)cc2)CC1` [Compound 10, (E)-4-(4-((2-(7-fluoroquinolin-4-yl)hydrazono)methyl)benzyl)thiomorpholine 1,1-dioxide], the IC50 in test [1] (setting [4]) turned out to be 35.6 µM. The inhibition at 30 µM in test [2] (setting [6]) is below 30%; in test [3] it was above 30%.

Turning to `C/C(=N\Nc1ncnc2cc(Cl)ccc12)c1cccc(CN(C)C)c1` [Compound 29, 1-(3-(1-(2-(7-chloroquinazolin-4-yl)hydrazineylidene)ethyl)phenyl)—N,N-dimethylmethanamine], the inhibition at 30 µM is above 30% in test [2] (setting [6]) and below 30% in test [3].

Take `C/C(=N\Nc1ncnc2cc(Cl)ccc12)c1ccc(-n2cncn2)nc1` [Compound 32, (E)-4-(2-(1-(6-(1H-1,2,4-triazol-1-yl)pyridin-3-yl)ethylidene)hydrazineyl)-7-chloroquinazoline]: the inhibition at 30 µM in test [2] (setting [6]) and in test [3] was below 30% throughout.
